Laboratory results as given in patent US8288377B2, “Inhibitors of the interaction between MDM2 and p53” (Janssen Pharmaceutica N.V., priority 2007, dated 2012).

Experiments:
p53 in A2780 cells = experiment: p53 ELISA (preservation of p53 in A2780 cells); type: cell-based; settings: Homo sapiens, treated with compound for 16 hours, read-out: p53-elisa LAD (lowest dose giving at least 140% of the value for p53 present in the control)
Experimental: The capacity of the compounds to preserve p53 in A2780 cells was measured with the p53 enzyme linked immunosorbent assay (ELISA). The p53 assay is a “sandwich” enzyme immunoassay employing two polyclonal antibodies. A polyclonal antibody, specific for the p53 protein, has been immobilized onto the surface of the plastic wells. Any p53 present in the sample to be assayed will bind to the capture antibody. The biotinylated detector polyclonal antibody also recognizes p53 protein, and will bind to any p53, which has been retained by the capture antibody. The detector antibody, in turn, is bound by horseradish peroxidase-conjugated streptavidin. The horseradish peroxidase catalyses the conversion of the chromogenic substrate o-phenylene diamine, the intensity of which is proportional to the amount of p53 protein bound to the plate. The coloured reaction product is quantified using a spectrophotometer. Quantitation is achieved by the construction of a standard curve using known concentrations of purified recombinant HIS tagged p53 protein (see example C.1).
A2780 cells (ATCC) were cultivated in RPMI 1640 supplemented with 10% fetal calf serum (FCS), 2 mM L-glutamine and gentamycin at 37° C. in a humidified incubator with 5% CO2.
A2780 cells were seeded at 20.000 cells per well in a 96 well plate, cultured for 24 hours and treated with compound for 16 hours at 37° C. in a humidified incubator. After incubation, the cells were washed once with phosphate-buffered saline and 30 μl, per well, low salt RIPA buffer (20 mM tris, pH7.0, 0.5 mM EDTA, 1% Nonidet P40, 0.5% DOC, 0.05% SDS, 1 mM PMSF, 1 μg/ml aprotinin and 0.5 μ/ml leupeptin) was added. Plates were placed on ice for 30 minutes to complete the lysis. p53 protein was detected in de lysates by using the sandwich ELISA, described below.
High binding polystyrene EIA/RIA 96 well plates (Costar 9018) were coated with the capture antibody pAb1801 (Abcam ab28-100) at a concentration of 1 μg/ml in coating buffer (0.1 M NaHCO3 pH8.2), 50 μl per well. The antibody was allowed to adhere overnight at 4° C. Coated plates were washed once with phosphate-buffered saline (PBS)/0.05% Tween 20 and 300 μl of blocking buffer (PBS, 1% bovine serum albumins (BSA)) was added, for an incubation period of 2 hours at room temperature. Dilutions of purified recombinant HIS tagged p53 protein, ranging from 3-200 ng/ml, were made in blocking buffer and used as standards.
Plates were washed twice with PBS/0.05% Tween 20 and blocking buffer or standards were added at 80 μl/well. To the standards, 20 μl of lysis buffer was added. The samples were added to the other wells at 20 μl lysate/well. After an overnight incubation at 4° C., plates were washed twice with PBS/0.05% Tween 20. Aliquots of 100 μl secondary polyclonal antibody p53(FL-393) (Tebubio, sc-6243) at a concentration of 1 μg/ml in blocking buffer were added to each well and allowed to adhere for 2 hours at room temperature. Plates were washed three times with PBS/0.05% Tween 20. Detection antibody anti-rabbit HRP (sc-2004, Tebubio) at 0.04 μg/ml in PBS/1% BSA was added and incubated for 1 hour at room temperature. Plates were washed three times with PBS/0.05% Tween 20 and 100 μl of substrate buffer was added (substrate buffer was prepared shortly before use by adding 1 tablet of 10 mg o-phenylene diamine (OPD) from Sigma and 125 μl 3% H2O2 to 25 ml OPD buffer: 35 mM citric acid, 66 mM Na2HPO4, pH5.6). After 5 to 10 minutes, colour reaction was stopped by adding 50 μl stop buffer (1 M H2SO4) per well. The absorbance at dual wavelengths of 490/655 nm was measured using a Biorad micro plate reader and the results were then analyzed.
For each experiment, controls (containing no drug) and a blank incubation (containing no cells or drugs) were run in parallel. The blank value was subtracted from all control and sample values. For each sample, the value of p53 (in absorbance units) was expressed as the percentage of the value for p53 present in the control. […]

[1] = tested on: A2780 ovarian cancer cells; experiment: Proliferation assay (Alamar Blue); type: cell-based; settings: Homo sapiens, 96 h, 4-day incubation, read-out: pIC50 (negative log value of the IC50-value) (converted)
Experimental: Cellular activity of the compounds of formula (I) was determined on A2780 tumour cells using a colorimetric assay for cell toxicity or survival (see example C.2).
The human A2780 ovarian cancer cells were a kind gift from Dr. T. C. Hamilton (Fox Chase Cancer Centre, Pennsylvania, U.S.A.). The cells were cultured in RPMI 1640 medium supplemented with 2 mM L-Glutamine, 50 μg/ml gentamicin and 10% fetal calf serum.
Resazurin was purchased from Aldrich (Prod. No. 199303). Potassium ferrocyanide, potassium ferricyanide, KH2PO4 and K2HPO4 were purchased from Sigma (Prod. Nos. P9387, P8131, P5655 and P8281, respectively).
Potassium Phosphate Buffer 0.1 M (PPB) was made as follows: 2.72 gram KH2PO4 and 13.86 gram K2HPO4 were dissolved in 500 ml milli-Q H2O, the pH was adjusted to pH 7.4 and the volume was brought to 1 liter with milli-Q H2O; the buffer was filter sterilised and stored at room temperature. Resazurin stock solution (PPB-A) was prepared fresh by dissolving 45 mg resazurin in 15 ml PBS. 30 mM potassium ferricyanide (PPB-B) was prepared by dissolving 0.987 gram potassium ferricyanide in 100 ml PPB. 30 mM potassium ferrocyanide (PPB-C) was prepared by dissolving 1.266 gram potassium ferrocyanide in 100 ml PPB.
Mixture of PPB-A, PPB-B and PPB-C was prepared by mixing equal volumes of the respective solutions. Resazurin work solution (herein termed “Alamar Blue” solution) was prepared by diluting said mixture 20× (vol/vol) in PPB and filter sterilising; the Alamar Blue solution could be kept at 4° C. for a maximum of 2 weeks.
For experiments in 384 wells plates the cells were seeded at a density of 5×10^3 cells/ml in Falcon 384-well culture plates (Life Technologies, Merelbeke, Belgium), black with clear bottom, in 45 μl culture medium. Cells were allowed to adhere to plastic for 24 hr. The tested compound was pre-diluted (1/50 in culture medium) and 5 μl pre-diluted compound was added to the wells. Following 4-day incubation, 10 μl of the Alamar Blue solution was added to each well and the cells were further incubated for 5 hrs (A2780) at 37° C. The fluorescence intensity was measured for each well with a Fluorescence plate reader (Fluorskan, Labsystems, 540 nm excitation and 590 nm emission)
The antiproliferative activity was calculated as percentage of remaining viable cells in treated versus control (untreated cells) conditions. Within an experiment, the result for each experimental condition is the mean of 3 replicate wells. When appropriate, the experiments were repeated to establish full concentration-response curves. When appropriate, IC50-values (concentration of the drug, needed to reduce cell growth to 50% of the control) were computed using probit analysis for graded data (Finney, D. J., Probit Analyses, 2nd Ed. Chapter 10, Graded Responses, Cambridge University Press, Cambridge 1962). Herein the effects of test compounds are expressed as pIC50 (the negative log value of the IC50-value) (see Table 4).

| IC50 [1] | SMILES | minimal effective concentration (p53 in A2780 cells) |
| --- | --- | --- |
| 6.46 µM | OC1CCc2c(Nc3ccc4c(c3)OCCN4CCc3coc4ccccc34)ccnc21 (centres unmarked) [Compound 70] | 10 µM |
| 5.25 µM | COc1cccc2c(CCN3CCOc4cc(Nc5ccnc6c5CCC6O)ccc43)c[nH]c12 (centres unmarked) [Compound 71] | > 10 µM |
| ~5.25 µM | CN1CCN(CCc2c[nH]c3ccccc23)c2ccc(Nc3ccnc4c3CCC4O)cc21 (centres unmarked) [Compound 75] | > 10 µM |
| 2.19 µM | CC1(C)CN(CCc2c[nH]c3ccccc23)c2ccc(Nc3ccnc4c3CCC4O)cc2O1 (centres unmarked) [Compound 77] | 3 µM |
| 4.17 µM | COc1cccc2c(CCN3CCOc4cc(Nc5ccnc(CO)c5)ccc43)c[nH]c12 [Compound 81] | > 10 µM |

More lines, now with the values behind:

| SMILES | IC50 [1] | minimal effective concentration (p53 in A2780 cells) |
| --- | --- | --- |
| CC1Oc2cc(Nc3ccnc(CO)c3)ccc2N(CCc2c[nH]c3ccccc23)C1=O (centres unmarked) [Compound 65] | > 10 µM | > 10 µM |
| OCc1cc(Nc2ccc3c(c2)CCCN3CCc2c[nH]c3ccccc23)ccn1 [Compound 66] | 1.41 µM | 3 µM |
| OCc1cc(Nc2ccc3c(c2)OCCN3CCc2csc3ccccc23)ccn1 [Compound 67] | 5.01 µM | 10 µM |
| OCc1cc(Nc2ccc3c(c2)OCCN3CCc2coc3ccccc23)ccn1 [Compound 68] | 5.25 µM | > 10 µM |
| OCc1cc(Nc2cc(F)c3c(c2)OCCN3CCc2c[nH]c3ccccc23)ccn1 [Compound 69] | > 10 µM | 10 µM |
| Cc1cccc2c(CCN3CCOc4cc(Nc5ccnc(CO)c5)ccc43)c[nH]c12 [Compound 72] | 4.68 µM | > 10 µM |
| CN1CCN(CCc2c[nH]c3ccccc23)c2ccc(Nc3ccncc3)cc21 [Compound 76] | 3.31 µM | 10 µM |
| CC1(C)CN(CCc2c[nH]c3ccccc23)c2ccc(Nc3ccnc(CO)c3)cc2O1 [Compound 78] | 6.17 µM | > 10 µM |
